Among the test systems are 786-0 renal; A549 NSCLC; ACHN renal; CAKI-1 renal; HCC-2998 colon; LOX IMVI melanoma; LXFL 529 NSCLC; M19-MEL melanoma; NCI-H23 lung.
What all share (assay): growth of human tumour cells (NCI), 48 h

Where “and” joins values, the source holds several entries; their conditions need not be identical. Equal entries are not always repeated.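 Each compound was tested at five concentrations against cells in 96-well plates for 48 hours. Abbreviation: GI50, concentration required for 50% inhibition of growth. The concentration for full growth arrest is given as TGI.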

Here are results for 16 molecules from PubChem BioAssay (NCI).

As to `O=S1(=O)N2CN3CN(C2)CN1C3`, the TGI in the experiment with 786-0 renal is 179 µM; in the experiment on A549 NSCLC, 935 µM; in the experiment with ACHN renal it was 283 µM; in the experiment with CAKI-1 renal, 571 µM; in the experiment on HCC-2998 colon, 571 µM; in the experiment with LOX IMVI melanoma it was > 79.1 µM and 67.5 µM. The TGI in the experiment with LXFL 529 NSCLC turned out to be 34.1 µM; with M19-MEL melanoma, 337 µM; in the experiment with NCI-H23 lung, 44.3 µM. The GI50 in the experiment with LOX IMVI melanoma is 25.2 µM.
With `CCCCC1=CSC(c2ccccc2)=C(c2ccccc2)S1`, the TGI with 786-0 renal, in the experiment with A549 NSCLC, with HCC-2998 colon, in the experiment with LOX IMVI melanoma, in the experiment on LXFL 529 NSCLC and with M19-MEL melanoma was above 100 µM throughout. The molecule also yielded a TGI with NCI-H23 lung above 100 µM.
Consider `O=[N+]([O-])c1ccc(C2=Nc3ccccc3S(=O)C(c3ccccc3)C2)cc1` (configuration not stated), for which the TGI in the experiment with 786-0 renal is 35.1 µM; in the experiment on A549 NSCLC it was above 100 µM; with ACHN renal, 44.2 µM; in the experiment with CAKI-1 renal, 37.4 µM; with HCC-2998 colon, 34.9 µM; in the experiment with LOX IMVI melanoma it was 29.3 µM. For the same molecule, the TGI is 26.7 µM in the experiment on LXFL 529 NSCLC, 29.6 µM in the experiment with M19-MEL melanoma and 36.3 µM with NCI-H23 lung.
Take `Nc1nncc2c1c(Br)cn2C1OC(CO)C(O)C1O` (configuration not stated): the TGI with 786-0 renal, in the experiment on A549 NSCLC, with ACHN renal, with CAKI-1 renal, in the experiment on HCC-2998 colon and in the experiment on LOX IMVI melanoma was above 100 µM each time. For the same molecule, the TGI with LXFL 529 NSCLC is above 100 µM; in the experiment with M19-MEL melanoma, above 100 µM; with NCI-H23 lung, above 67.6 µM.
For the molecule `O=C(O/N=C1\CCCC\C1=C/c1ccccc1)c1ccc([N+](=O)[O-])cc1`, the TGI in the experiment with 786-0 renal, in the experiment on A549 NSCLC, in the experiment on ACHN renal, in the experiment with CAKI-1 renal, in the experiment on HCC-2998 colon and with LOX IMVI melanoma was above 100 µM throughout. Further, the TGI with LXFL 529 NSCLC, with M19-MEL melanoma and with NCI-H23 lung was above 100 µM throughout.
As to `Cc1ccc(NC(=O)CCCC(=O)CC(=O)c2ccc(Br)cc2)cc1`, the TGI in the experiment with 786-0 renal, in the experiment with A549 NSCLC, with ACHN renal, in the experiment on CAKI-1 renal, with HCC-2998 colon and in the experiment on LOX IMVI melanoma was above 100 µM in each case. The TGI in the experiment on LXFL 529 NSCLC, in the experiment with M19-MEL melanoma and in the experiment on NCI-H23 lung was above 100 µM in each case.
As for `O=C1C(c2ccccc2)=C(c2ccccc2)C(c2ccc(Cc3ccc(C4=C(c5ccccc5)C(=O)C(c5ccccc5)=C4c4ccccc4)cc3)cc2)=C1c1ccccc1`, the TGI in the experiment with 786-0 renal, in the experiment on A549 NSCLC, in the experiment on CAKI-1 renal, with LOX IMVI melanoma, in the experiment with M19-MEL melanoma and with NCI-H23 lung was above 100 µM throughout.
On to `Cc1ccc(NC(=O)CCc2nc(=S)[nH][nH]2)cc1`, for which the TGI with 786-0 renal, in the experiment with A549 NSCLC, in the experiment with ACHN renal, in the experiment on CAKI-1 renal, in the experiment on LXFL 529 NSCLC and in the experiment on M19-MEL melanoma was above 100 µM in each case. For the same molecule, in the experiment on NCI-H23 lung, the TGI was above 100 µM.
Turning to `N#CCCn1[nH]c(=O)c(Cl)c(Cl)c1=O`, the TGI was 39.6 µM in the experiment on 786-0 renal; 59.4 µM in the experiment with A549 NSCLC; 30.7 µM in the experiment on ACHN renal; 26 µM with HCC-2998 colon; 28.3 µM in the experiment on LOX IMVI melanoma; 30.6 µM in the experiment on LXFL 529 NSCLC. Also, the TGI turned out to be 42 µM with M19-MEL melanoma and 29.3 µM with NCI-H23 lung.
As for `CCOC(=O)C(C)(NC(=O)c1ccc(NCc2ccc3nc(NC(=O)c4ccccc4)nc(NC(=O)c4ccccc4)c3c2)cc1)C(=O)OCC`, the TGI in the experiment on 786-0 renal came to 13.3 µM; with A549 NSCLC, 35.2 µM; in the experiment on ACHN renal it was 23.6 µM; in the experiment with CAKI-1 renal, 21.9 µM; in the experiment with HCC-2998 colon, 69.7 µM; in the experiment on LOX IMVI melanoma, 34.1 µM. In addition, the TGI in the experiment with M19-MEL melanoma turned out to be 24.9 µM; in the experiment on NCI-H23 lung it was 27.5 µM.
Turning to `COC1C2C[C@@H](O)CCC2C(C(=O)OCCl)C[C@H]1O` (some centres not stated), the TGI in the experiment on 786-0 renal, in the experiment with A549 NSCLC, with ACHN renal, with CAKI-1 renal, with HCC-2998 colon and with LXFL 529 NSCLC was above 100 µM throughout. For the same molecule, the TGI in the experiment on M19-MEL melanoma is above 100 µM.
In the case of `Nc1nnc2c(-c3ccccc3)[nH]nc2n1`, the TGI with 786-0 renal, in the experiment with A549 NSCLC, in the experiment on ACHN renal, with CAKI-1 renal, in the experiment with HCC-2998 colon and in the experiment with LOX IMVI melanoma was above 100 µM each time. The TGI in the experiment with LXFL 529 NSCLC and in the experiment on NCI-H23 lung was above 100 µM each time.
Turning to `CN(C)CCNC(=O)c1cccc2c1nc(-c1ccc(F)cc1)c1ccccc12`, the TGI was 18.1 µM with 786-0 renal; 13.8 µM in the experiment on A549 NSCLC; 11.4 µM in the experiment on ACHN renal; 16.8 µM in the experiment with CAKI-1 renal; 16.7 µM with HCC-2998 colon; 5.36 µM with LOX IMVI melanoma. For the same molecule, the TGI in the experiment on M19-MEL melanoma and in the experiment on NCI-H23 lung was 18.6 µM throughout.
Consider `Cn1c(CBr)nc2c1C(=O)c1nc(CBr)[nH]c(=O)c1C2=O`, for which the TGI in the experiment on 786-0 renal, with A549 NSCLC, in the experiment with ACHN renal, in the experiment with CAKI-1 renal, in the experiment with LOX IMVI melanoma and with LXFL 529 NSCLC was above 100 µM in each case. Also, the values for the TGI in the experiment with M19-MEL melanoma and in the experiment on NCI-H23 lung were 68.6 µM and above 100 µM, respectively.
`Cc1ccc(C(=O)CC2(O)C(=O)Nc3c(C)cc(Cl)cc32)cc1` (configuration not stated): the TGI in the experiment on 786-0 renal, in the experiment with A549 NSCLC, with ACHN renal, with CAKI-1 renal, with HCC-2998 colon and with LOX IMVI melanoma was above 100 µM throughout. Moreover, the TGI in the experiment on LXFL 529 NSCLC and in the experiment with NCI-H23 lung was above 100 µM each time.
As for `CC(=O)C1CCN(c2ccccc2)C1` (configuration not stated), the TGI with 786-0 renal, with A549 NSCLC, in the experiment on ACHN renal, with CAKI-1 renal, in the experiment on M19-MEL melanoma and in the experiment with NCI-H23 lung was above 100 µM throughout.
